Data on one compound can be found in patent US10435388B2, “Selective inhibitors of clinically important mutants of the EGFR tyrosine kinase” (CS PHARMATECH LIMITED, priority 2016, dated 2019).

Assay [1] deals with p-EGFR in PC9 cells (Exon 19 deletion EGFR). The assay can be described thus: Exon19 deletion EGFR (activating single mutant) PC-9 cellular autophosphorylation assay. The settings on record: 2 h treatment, ELISA. The format is cell-based, human. Background: In an ELISA, binding on a coated surface is turned into a signal by an enzyme label.
In assay [2] the target is T1, Wt EGFR (Homo sapiens, UniProt P00533).
T1 construct: isolated from A431 human epidermoid carcinoma cells which overexpress EGF receptor; endogenous in cells; host or cells: A431 human epidermoid carcinoma cells (receptor purified on wheat germ agglutinin sepharose)
The assay can be described thus: Enzyme assay, IC50 for wt EGFR (Caliper). In kind it is biochemical. To be noted: enzyme phosphorylation assay; read-out: EGFR_WT IC50. As to the method:
Purification of Epidermal Growth Factor Receptor Tyrosine Kinase Human EGF receptor tyrosine kinase was isolated from A431 human epidermoid carcinoma cells which overexpress EGF receptor by the following methods. Cells were grown in roller bottles in 50% Delbuco's Modified Eagle and 50% HAM F-12 nutrient media (Gibco) containing 10% fetal calf serum. Approximately 10^9 cells were lysed in two volumes of buffer containing 20 mM 2-(4N-[2-hydroxyethyl]piperazin-1-yl)ethanesulfonic acid (hepes), pH 7.4, 5 mM ethylene glycol bis(2-aminoethyl ether) N,N,N′,N′-tetraacetic acid, 1% Triton X-1OO, 10% glycerol. 0.1 mM sodium orthovanadate, 5 mM sodium fluoride, 4 mM pyrophosphate, 4 mM benzamide, 1 mM dithiothreitol, 80 μg/mL aprotinin, 40 μg/mL leupeptin and 1 mM phenylmethylsulfonyl fluoride. After centrifugation at 25,000×g for 10 minutes, the supernatant was equilibrated for 2 h at […], with 10 mL of wheat germ agglutinin sepharose that was previously equilibrated with 50 mM Hepes, 10% glycerol, 0.1% Triton X-100 and 150 mM NaCl, pH 7.5, (equilibration buffer). Contaminating proteins were washed from the resin with 1M NaCl in equilibration buffer, and the enzyme was eluted with 0.5M N-acetyl-1-D-glucosamine in equilibration buffer, followed by 1 mM urea. The enzyme was eluted with 0.1 mg/ml EGF.
Determination of IC50 Values for Wt EGFR
Dilute all compounds to 500 μM stock solutions in 100% DMSO and make a serial of 4-fold dilution for 10 does. “Max” and “Min” control contain 100% DMSO. “Max” stands for […], “Min” stands for low control without compounds. Transfer 10 μl of compounds to 90 μl of Ix kinase base buffer to make intermediate dilution. Transfer 5 μl of intermediate dilution compounds to the 384-well assay plate, then 10 μl 2.5× enzyme buffer containing (20 nM EGFR, 5 mM DTT, 1× kinase base buffer) were added to assay plate. […] Incubate at RT for 1 hr and 25 μl stop buffer to end up reaction. Collect conversion data from Caliper and conversion data from Caliper program. Fit the data in XLfit to obtain IC50 values.

Assay [3] has as its system p-EGFR in H1975 cells (L858R/T790M double mutant EGFR). The settings on record: read-out: H1975 IC50; cellular EGFR autophosphorylation, 2 h treatment, ELISA.
Method: Cellular EGFR Autophosphorylation Assays.
H1975 cells were cryopreserved in liquid nitrogen. […] Remove the vial from liquid nitrogen and thaw rapidly by placing at 37° C. in a water bath with gentle agitation for 1-2 minutes and then decontaminated by wiping with 70% ethanol before opening in a Class II biological safety cabinet. Transfer the vial contents drop-wise into 10 mL of cell culture medium in a sterile 15 mL conical tube. Then centrifuged the tube at 200× g for 5 minutes and aspirate the supernatant. Re-suspend the cell pellet with 1 mL of fresh cell culture medium and transfer it in to the T75 flask containing cell culture medium.
To passage H1975 cells, firstly, the adherent cells were rinsed with Trypsin/EDTA. Then add Trypsin/EDTA (3 mL for a T75 flask) into the flask and swirl to ensure the cells coated with trypsin evenly. Then incubate the flasks at 37° C. until the cells detach. Add equal volume of cell culture medium to stop the reaction. Collect the detached cells and centrifuged at 200× g for 5 minutes followed by re-suspended in fresh culture medium. Then, the cells were transferred into a new T75 flask containing cell culture medium. Cells were sub-cultured three times per week at a ratio of 1:4 in culture medium.
Harvest cells from flask into cell culture medium and the cell numbers counted using Automated Cell Counter (Thermo Fisher Scientific, Countess™). Dilute the cells into 250,000 cells/mL with culture medium and add 40 μL of cell suspension into each well of 384-well cell culture plate as designated. The final concentration was 10,000 cells/well. The plates were covered with lid and placed in 37° C. 5% CO2 incubator overnight for cell attachment.
On the second day, test compounds were dissolved in DMSO at 10 mM. […] The same volume of DMSO was adopted as high control.
Place the plate back to 37° C. 5% CO2 incubator for 2 hours. Replace the medium of each well with ice-cold HBSS. Then remove the HBSS, add 30 μL cell lysis buffer into each well and shake the plates for 30 mins on a plate shaker. Centrifuge for 5 min at 1,000 rpm to remove bubbles and transfer 25 uL of the lysate supernatant for p-EGFR assay by using a commercial ELISA kit (R&D, DYC1095B-5).
For estimation of IC50, the absorption readout are transformed to % relative activity by applying the following equation
[formula] The IC50 was then calculated by fitting in XLFit (IDBS, Guildford, Surrey) to a four parameters logistic curve.
For assay [4], the system named is LoVo cells (unmutated EGFR wild type). The assay can be described thus: LoVo growth inhibition assay (cell proliferation), Method A. The format is cell-based. The settings on record: cellular proliferation, 72 h, CellTiter-Glo (Table 1), read-out: LoVo IC50 (nM) WT. The procedure:
Cell Proliferation Assays—Method A
LoVo Growth Inhibition Assay (Cell Proliferation)
The rest of the procedure was carried out in the same manner as described for the H1975 cells.
A general note: Cellular ATP, detected with luciferase, serves as a proxy for viable cell number.

Assay [5] concerns the target EGFR_d746-750 (Homo sapiens, UniProt P00533, DEL746-750). Put plainly: Enzyme assay, IC50 for single mutant EGFR_d746-750 (Caliper). In kind it is biochemical. The settings on record: enzyme phosphorylation assay. The procedure: Using the same technique as described in the previous paragraph, various mutated forms of the epidermal growth factor receptor may be isolated from appropriate cell lines which contain them. For example, the EGFR de1746-750 mutant protein may be extracted from PC-9 cells, and the L858R/T790M double mutant EGFR protein may be isolated from H1975 cells.
Determination of IC50 Values for Single Mutant EGFR_d746-750
Dilute all compounds to 500 μM stock solutions in 100% DMSO and make a serial of 4-fold dilution for 10 doses. “Max” and “Min” control contain 100% DMSO. “Max” stands for […], “Min” stands for low control without compounds. Transfer 10 μl of compounds to 90 μl of 1× kinase base buffer to make intermediate dilution. […] Incubate at RT for 1 hr and 25 μl stop buffer to end up reaction. Collect conversion data from Caliper and conversion data from Caliper program. Fit the data in XLfit to obtain IC50 values.

The subject of assay [6] is PC9 cells (EGFR d746-750 single mutant). Put plainly: PC-9 growth inhibition assay (cell proliferation), Method A. To be noted: cellular proliferation, PC9 cells, 72 h, CellTiter-Glo (Table 1); read-out: PC9 IC50 (nM) SM. The format is cell-based, human.

“And” between values parts separate entries of the source, which are not always exact repeats. Equal entries are not always repeated.

T1 sequence (P00533 25-1210): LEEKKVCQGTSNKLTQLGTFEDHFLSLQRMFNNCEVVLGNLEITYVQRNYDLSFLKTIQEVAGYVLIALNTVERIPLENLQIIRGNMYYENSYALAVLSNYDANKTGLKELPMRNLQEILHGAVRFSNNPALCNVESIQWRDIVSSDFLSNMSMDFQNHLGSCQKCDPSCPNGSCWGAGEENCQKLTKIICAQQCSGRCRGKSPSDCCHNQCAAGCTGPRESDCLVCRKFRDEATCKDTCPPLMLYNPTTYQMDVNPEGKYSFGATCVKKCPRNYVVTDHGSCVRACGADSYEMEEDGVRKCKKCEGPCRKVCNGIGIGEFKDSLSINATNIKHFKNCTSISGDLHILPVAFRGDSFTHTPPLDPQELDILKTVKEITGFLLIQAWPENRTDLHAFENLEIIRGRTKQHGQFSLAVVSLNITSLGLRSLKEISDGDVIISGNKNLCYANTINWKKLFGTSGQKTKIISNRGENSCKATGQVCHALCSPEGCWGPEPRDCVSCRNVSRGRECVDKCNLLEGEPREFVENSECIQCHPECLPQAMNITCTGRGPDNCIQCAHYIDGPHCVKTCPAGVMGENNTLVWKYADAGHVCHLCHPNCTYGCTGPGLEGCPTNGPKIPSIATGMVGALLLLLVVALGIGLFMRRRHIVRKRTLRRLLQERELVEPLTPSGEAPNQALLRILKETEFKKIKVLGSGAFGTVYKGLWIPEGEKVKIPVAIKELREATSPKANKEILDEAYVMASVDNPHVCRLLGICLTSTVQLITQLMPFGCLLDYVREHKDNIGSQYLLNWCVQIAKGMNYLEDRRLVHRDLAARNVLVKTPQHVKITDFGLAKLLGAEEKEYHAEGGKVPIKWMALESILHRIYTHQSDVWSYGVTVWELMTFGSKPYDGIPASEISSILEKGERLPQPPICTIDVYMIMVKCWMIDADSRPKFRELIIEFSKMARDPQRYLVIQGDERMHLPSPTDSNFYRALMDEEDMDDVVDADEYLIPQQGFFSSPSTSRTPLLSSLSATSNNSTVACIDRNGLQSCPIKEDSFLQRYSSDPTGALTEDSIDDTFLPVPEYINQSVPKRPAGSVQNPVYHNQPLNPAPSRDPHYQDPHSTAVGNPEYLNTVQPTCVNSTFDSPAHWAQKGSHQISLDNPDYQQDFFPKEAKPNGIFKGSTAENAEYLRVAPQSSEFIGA
EGFR_d746-750, sequence (P00533 with tags, fused parts or gaps DEL746-750): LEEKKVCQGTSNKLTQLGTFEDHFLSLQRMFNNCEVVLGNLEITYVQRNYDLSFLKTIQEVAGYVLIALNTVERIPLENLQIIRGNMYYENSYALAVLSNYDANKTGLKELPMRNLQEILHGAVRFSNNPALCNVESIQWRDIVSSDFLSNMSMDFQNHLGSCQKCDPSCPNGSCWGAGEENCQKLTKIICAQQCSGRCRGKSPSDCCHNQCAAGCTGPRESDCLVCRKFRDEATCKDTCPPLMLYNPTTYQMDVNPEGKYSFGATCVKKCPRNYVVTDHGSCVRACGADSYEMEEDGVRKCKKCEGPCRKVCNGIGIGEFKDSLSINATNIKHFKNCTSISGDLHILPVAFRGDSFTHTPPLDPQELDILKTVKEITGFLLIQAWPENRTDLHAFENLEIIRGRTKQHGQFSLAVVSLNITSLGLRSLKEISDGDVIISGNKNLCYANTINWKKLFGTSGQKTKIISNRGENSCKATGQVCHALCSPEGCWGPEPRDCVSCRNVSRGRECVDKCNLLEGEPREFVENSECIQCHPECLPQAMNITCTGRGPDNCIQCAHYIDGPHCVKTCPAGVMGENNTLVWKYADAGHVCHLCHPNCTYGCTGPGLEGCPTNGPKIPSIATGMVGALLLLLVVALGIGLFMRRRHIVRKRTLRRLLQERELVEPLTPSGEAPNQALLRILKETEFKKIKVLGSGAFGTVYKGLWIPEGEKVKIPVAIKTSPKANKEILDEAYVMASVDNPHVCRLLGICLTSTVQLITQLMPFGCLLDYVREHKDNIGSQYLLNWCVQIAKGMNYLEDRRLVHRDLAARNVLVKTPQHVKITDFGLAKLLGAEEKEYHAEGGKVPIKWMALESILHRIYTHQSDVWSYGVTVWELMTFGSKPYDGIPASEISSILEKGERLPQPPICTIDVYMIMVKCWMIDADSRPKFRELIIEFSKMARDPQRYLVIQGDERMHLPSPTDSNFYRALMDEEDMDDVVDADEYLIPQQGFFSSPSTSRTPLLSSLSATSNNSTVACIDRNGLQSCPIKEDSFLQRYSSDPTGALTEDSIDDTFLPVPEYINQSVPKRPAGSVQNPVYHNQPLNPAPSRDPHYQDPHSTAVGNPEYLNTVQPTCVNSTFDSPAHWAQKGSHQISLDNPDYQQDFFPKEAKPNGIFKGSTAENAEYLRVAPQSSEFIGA

By IC50 is commonly meant the midpoint of a concentration-inhibition curve. Regarding `C=CC(=O)Nc1cc(Nc2nccc(-c3c[nH]c4ccccc34)n2)c(OC)cc1N(C)CCN(C)C` [AZD-5104], the IC50 in assay [1] is 2.91 nM and 2.4 nM; in assay [2], 1.6 nM; in assay [3] it was 1.84 nM and 3.58 nM; in assay [4] it was 3250 nM; in assay [5], 1.1 nM; in assay [6] it was 3.4 nM.
